Changes are numbered by the printed parent chain.
Legend:
GDAP1ΔTM [1] = target: T1, GDAP1ΔTM (Mus musculus, UniProt O88741); assay: native PAGE titration, band quantification, Hill fit; type: binding
T1 sequence (O88741 1-322): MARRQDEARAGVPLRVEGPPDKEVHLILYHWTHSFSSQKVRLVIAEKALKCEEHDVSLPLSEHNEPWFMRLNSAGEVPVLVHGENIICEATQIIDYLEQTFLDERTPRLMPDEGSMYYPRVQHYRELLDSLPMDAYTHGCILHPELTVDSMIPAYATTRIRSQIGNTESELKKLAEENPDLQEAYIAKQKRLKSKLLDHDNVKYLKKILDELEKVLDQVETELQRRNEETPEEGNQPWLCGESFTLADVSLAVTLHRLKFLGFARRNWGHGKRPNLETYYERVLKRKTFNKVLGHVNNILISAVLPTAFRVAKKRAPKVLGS

GDAP1ΔTM [2] = target: T2, GDAP1ΔTM (Mus musculus, UniProt O88741, T157P); assay: as above; type: binding
T2 sequence (O88741 1-322 T157P): T1 sequence (O88741 1-322) with T157P

GDAP1ΔTM [3] = target: T1, GDAP1ΔTM; assay: anti-4HNE Western blot of Michael adduct formation, Hill fit; type: biochemical
GDAP1ΔTM [4] = target: T1, GDAP1ΔTM; assay: fluorescence polarization, N-terminally fluorescein-labelled protein; type: binding

| Kd (GDAP1ΔTM [1]) [µM] | Kd (GDAP1ΔTM [2]) [µM] | EC50 (GDAP1ΔTM [3]) [µM] | Kd (GDAP1ΔTM [4]) [µM] | Compound |
| --- | --- | --- | --- | --- |
| 398 | 1330 ± 259 | 241 ± 52 |  | CCCCCC(O)/C=C/C=O (stereo not shown) [4-hydroxynonenal] |
|  |  |  | ~34 | O=C(O)CCCCCCCCCCCCCCC(=O)O [thapsic acid] |
